In patent US12275729B2 (Merck Sharp & Dohme LLC, priority 2017, dated 2025):

Columns and labels:
IDO1 [1] = target: T1, IDO1 (Homo sapiens, UniProt P14902); test: IDO1 Cellular Assay in HeLa Cells Stimulated with IFNγ; format: cell-based; conditions: read-out: Hela IC50
IDO1 [2] = target: T1, IDO1; test: IDO1 Human Whole Blood Assay; format: cell-based; design: Human whole blood was drawn in sodium heparin coated tubes from healthy internal donors; from tissue; host or cells: human whole blood from healthy donors, stimulated with LPS and IFNγ; conditions: LPS and IFNγ stimulated

T1 sequence (P14902 whole entry): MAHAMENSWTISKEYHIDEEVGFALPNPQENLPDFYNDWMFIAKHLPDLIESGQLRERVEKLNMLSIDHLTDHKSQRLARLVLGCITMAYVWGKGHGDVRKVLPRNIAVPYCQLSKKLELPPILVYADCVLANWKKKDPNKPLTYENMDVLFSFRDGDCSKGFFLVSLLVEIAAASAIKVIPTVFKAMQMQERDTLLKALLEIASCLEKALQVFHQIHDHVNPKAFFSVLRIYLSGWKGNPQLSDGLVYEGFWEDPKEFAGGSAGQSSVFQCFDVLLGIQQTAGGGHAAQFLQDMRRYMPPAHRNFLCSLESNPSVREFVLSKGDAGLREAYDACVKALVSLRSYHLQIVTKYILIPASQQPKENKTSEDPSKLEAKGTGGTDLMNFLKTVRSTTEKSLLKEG

SMILES	IC50 (IDO1 [1]; about 48 hours)	IC50 (IDO1 [2])	IC50 (IDO1 [1])	IC50 (IDO1 [1]; value in running text)
O=C(OC1CC1)N1CCCc2nc(C3(C(=O)Nc4ccc(Cl)nc4)CC4(CC4)C3)ccc21 [Example 418, 2-(5-((6-chloropyridin-3-yl)carbamoyl)spiro[2.3]hexan-5-yl)-5-(cyclopropoxycarbonyl)-5,6,7,8-tetrahydro-1,5-naphthyridin-1-ium 2,2,2-trifluoroacetate]		239 nM	1.35 nM	
Cc1nccc(N2CCCc3nc(C(C)C(=O)Nc4ccc(Cl)cc4)ccc32)n1 (stereo not drawn) [Example 363, N-(4-chlorophenyl)-2-(5-(2-methylpyrimidin-4-yl)-5,6,7,8-tetrahydro-1,5-naphthyridin-2-yl)propanamide]		178 nM	0.93 nM	
Cc1nccc(N2CCCc3nc(C4(C(=O)Nc5ccc(F)cc5)CC(F)C4)ccc32)n1 (stereo not drawn) [Example 419, 2-(3-fluoro-1-((4-fluorophenyl)carbamoyl)cyclobutyl)-5-(2-methylpyrimidin-4-yl)-5,6,7,8-tetrahydro-1,5-naphthyridin-1-ium 2,2,2-trifluoroacetate]		69 nM	1.09 nM	1 nM
Cc1nccc(N2CCCc3nc(C4(NC(=O)c5ccc(Cl)cc5)CC4)ccc32)n1 [Example 249, 4-chloro-N-(1-(5-(2-methylpyrimidin-4-yl)-5,6,7,8-tetrahydro-1,5-naphthyridin-2-yl)cyclopropyl)benzamide]	0.7 nM	63 nM		
C[C@H](C(=O)Nc1ccc(F)cc1)c1ccc2c(c1)CCCN2C(=O)c1cccc(Cl)c1 (single isomer, unassigned) [Example 52]	4.9 nM	372 nM		
CC(C(=O)Nc1ccc(F)cc1)c1ccc2c(n1)CCCN2c1ccnc(C2CC2)n1 (stereo not drawn) [Example 365, 2-(5-(2-cyclopropylpyrimidin-4-yl)-5,6,7,8-tetrahydro-1,5-naphthyridin-2-yl)-N-(4-fluorophenyl)propanamide]		254 nM	3.62 nM	
Cc1nc(C(=O)N2CCCc3cc(C4(C(=O)Nc5ccc(F)cc5)CCC4)ccc32)no1 [Example 100, N-(4-fluorophenyl)-1-[1-(5-methyl-1,2,4-oxadiazole-3-carbonyl)-1,2,3,4-tetrahydroquinolin-6-yl]cyclobutane-1-carboxamide]	1.2 nM	90 nM		

The next molecules have a lower IC50 (IDO1 [2]) than those just listed; values first:

IC50 (IDO1 [1]; about 48 hours)	IC50 (IDO1 [2])	IC50 (IDO1 [1])	IC50 (IDO1 [1]; value in running text)	SMILES
3.2 nM	38 nM			CC(C)NC(=O)N1CCCc2cc([C@H](C)C(=O)Nc3ccc(F)cc3)ccc21 [Example 89, 6-{(2S)-1-[(4-fluorophenyl)amino]-1-oxopropan-2-yl}-N-(propan-2-yl)-3,4-dihydroquinoline-1(2H)-carboxamide]
1.7 nM	11 nM			O=C(C1CC1)N1CCCc2cc(C3(C(=O)Nc4ccc(F)cc4)CCC3)ccc21 [Example 97, 1-[1-(cyclopropanecarbonyl)-1,2,3,4-tetrahydroquinolin-6-yl]-N-(4-fluorophenyl)cyclobutane-1-carboxamide]
1.72 nM	13 nM			Cc1ccnc(C(=O)N2CCCc3nc(C4(C(=O)Nc5ccc(Cl)cc5)COC4)ccc32)n1 [Example 399, N-(4-chlorophenyl)-3-(5-(4-methylpyrimidine-2-carbonyl)-5,6,7,8-tetrahydro-1,5-naphthyridin-2-yl)oxetane-3-carboxamide]
2.4 nM	19 nM			C[C@@H](C(=O)Nc1ccc(F)cn1)c1ccc2c(c1)CCCN2C(=O)c1cccc(Cl)c1 (single isomer, unassigned) [Example 55]
2.3 nM	51 nM			C[C@@H](C(=O)Nc1ccc(Cl)cc1)c1ccc2c(c1)CCCN2C(=O)c1cccc(Cl)c1 (single isomer, unassigned) [Example 57]
2 nM	32 nM			Cc1nccc(N2CCCc3nc(C(C)NC(=O)c4ccc(Cl)cc4)ccc32)n1 (stereo not drawn) [Example 250, 4-chloro-N-(1-(5-(2-methylpyrimidin-4-yl)-5,6,7,8-tetrahydro-1,5-naphthyridin-2-yl)ethyl)benzamide]
